Measured values from patent US20260325533A1, “CDK INHIBITOR COMPOUNDS” (ALEKSIA THERAPEUTICS, INC., priority 2023, published 2026).
Where two headings read alike, the source gives them in different places.

Experiments:
Assay type in all cases: biochemical
[1] = biological target: CDK4/CCND3 (Homo sapiens, UniProt P11802); assay: CDK4 homogeneous time-resolved fluorescence (HTRF) kinase assay; details: CDK4/CCND
In short: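 Compounds were preincubated with 1.5 nM CDK4/CCND3 for 20 min at 23 °C in HEPES buffer (pH not given), then reacted 60 min with 1 mM ATP and 50 nM ULight-4E-BP1 (Thr37/46) peptide. EDTA stop, Eu-anti-phospho-4E-BP1 detection; 665/615 nm ratio; IC50 from 11-point half-log titrations from 10 μM.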

[2] = biological target: CDK6/CCND1 (Homo sapiens, UniProt Q00534); assay: CDK6 homogeneous time-resolved fluorescence (HTRF) kinase assay; details: CDK6/CCND
In short: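 1 nM enzyme, 1 mM ATP, 50 nM ULight-4E-BP1 (Thr37/46) peptide, 1% DMSO; 20 min compound preincubation, 60 min reaction, 23 °C. EDTA stop, 2 nM Eu-anti-phospho-4E-BP1 antibody 60 min. TR-FRET 665 nm (or 665/615 ratio); IC50 from 11-point half-log titration, top 10 μM.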

[3] = biological target: CDK1/CCNB1 (Homo sapiens, UniProt P06493); assay: CDK1 homogeneous time-resolved fluorescence (HTRF) kinase assay; details: CDK1/CCNB
In short: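 Compounds, titrated 11 points in half-log steps typically from 10 μM, were incubated with enzyme for 20 min before ATP (1 mM) and ULight-labelled eIF4E-binding protein 1 peptide (50 nM) started a 60-min reaction at 23 °C. Phosphopeptide was detected by europium-antibody TR-FRET and IC50 values were derived.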

[4] = biological target: CDK2/CCNE1 (Homo sapiens, UniProt P24941); assay: CDK2 homogeneous time-resolved fluorescence (HTRF) kinase assay; details: CDK2/CCNE
In short: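 CDK2/CCNE1 (3 nM) preincubated 20 min at 23 °C with compound, then reacted 60 min at 23 °C with 1 mM ATP and 50 nM ULight-4E-BP1 (Thr37/46) peptide. Stopped with EDTA, phospho-peptide detected by Eu-anti-phospho antibody (665 nm or 665/615 ratio). IC50 from 11-point half-log titrations typically starting at 10 μM.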

[5] = x = IC50 >250 nM, read-out: CDK4/CCND IC50 (>250 nM column)
[6] = x = IC50 >250 nM, read-out: CDK6/CCND IC50 (>250 nM column)
[7] = x = IC50 >250 nM, read-out: CDK1/CCNB IC50 (>250 nM column)
[8] = x = IC50 <25 nM, read-out: CDK2/CCNE IC50 (<25 nM)
[9] = x = IC50 25-250 nM, read-out: CDK1/CCNB IC50 (25-250 nM)
[10] = x = IC50 25-250 nM, read-out: CDK2/CCNE IC50 (25-250 nM)
[11] = x = IC50 25-250 nM, read-out: CDK4/CCND IC50 (25-250 nM)
[12] = x = IC50 >250 nM, read-out: CDK2/CCNE IC50 (>250 nM column)

CDK4/CCND3, sequence (P11802 whole entry): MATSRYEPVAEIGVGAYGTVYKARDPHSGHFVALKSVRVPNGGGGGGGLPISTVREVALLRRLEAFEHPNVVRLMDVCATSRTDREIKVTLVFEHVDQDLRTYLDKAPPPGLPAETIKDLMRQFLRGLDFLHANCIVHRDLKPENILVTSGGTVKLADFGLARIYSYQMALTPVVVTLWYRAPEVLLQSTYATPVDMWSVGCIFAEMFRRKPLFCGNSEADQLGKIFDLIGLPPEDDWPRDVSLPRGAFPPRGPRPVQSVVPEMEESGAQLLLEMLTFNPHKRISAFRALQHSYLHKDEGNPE
CDK4/CCND3, sequence (P30281 whole entry partner): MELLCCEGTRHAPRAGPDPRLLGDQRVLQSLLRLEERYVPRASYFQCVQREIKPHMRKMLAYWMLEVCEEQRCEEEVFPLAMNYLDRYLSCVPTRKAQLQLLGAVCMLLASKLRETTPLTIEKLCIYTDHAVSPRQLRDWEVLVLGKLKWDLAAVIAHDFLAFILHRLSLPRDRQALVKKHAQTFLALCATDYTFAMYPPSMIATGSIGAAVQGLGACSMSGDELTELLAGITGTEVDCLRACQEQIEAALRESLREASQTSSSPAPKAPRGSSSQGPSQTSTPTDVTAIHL
CDK6/CCND1, sequence (Q00534 whole entry): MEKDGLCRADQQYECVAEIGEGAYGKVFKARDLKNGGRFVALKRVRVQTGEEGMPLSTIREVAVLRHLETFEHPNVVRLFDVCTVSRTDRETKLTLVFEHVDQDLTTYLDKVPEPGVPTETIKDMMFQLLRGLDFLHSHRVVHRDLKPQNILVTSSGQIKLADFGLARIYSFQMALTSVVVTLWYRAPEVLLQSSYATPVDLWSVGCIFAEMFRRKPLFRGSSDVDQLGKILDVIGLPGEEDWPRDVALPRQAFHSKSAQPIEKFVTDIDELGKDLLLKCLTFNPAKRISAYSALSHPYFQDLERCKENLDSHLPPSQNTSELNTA
CDK6/CCND1, sequence (P24385 whole entry partner): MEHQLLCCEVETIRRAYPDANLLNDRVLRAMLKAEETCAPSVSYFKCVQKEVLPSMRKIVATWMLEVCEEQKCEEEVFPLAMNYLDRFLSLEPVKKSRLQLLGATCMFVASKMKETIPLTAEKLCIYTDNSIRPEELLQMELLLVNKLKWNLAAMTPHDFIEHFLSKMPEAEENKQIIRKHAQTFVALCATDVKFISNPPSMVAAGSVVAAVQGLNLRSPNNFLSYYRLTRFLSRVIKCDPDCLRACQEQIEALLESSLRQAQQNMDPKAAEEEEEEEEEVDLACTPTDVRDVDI
CDK1/CCNB1, sequence (P06493 whole entry): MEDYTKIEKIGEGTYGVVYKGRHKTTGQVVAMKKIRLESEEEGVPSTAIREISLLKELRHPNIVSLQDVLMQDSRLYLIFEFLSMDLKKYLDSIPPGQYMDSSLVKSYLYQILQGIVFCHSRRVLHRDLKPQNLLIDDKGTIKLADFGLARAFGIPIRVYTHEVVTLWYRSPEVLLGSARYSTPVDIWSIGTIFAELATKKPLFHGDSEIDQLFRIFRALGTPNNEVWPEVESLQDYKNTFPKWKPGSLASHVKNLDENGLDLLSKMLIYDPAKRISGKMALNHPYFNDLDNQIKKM
CDK1/CCNB1, sequence (P14635 whole entry partner): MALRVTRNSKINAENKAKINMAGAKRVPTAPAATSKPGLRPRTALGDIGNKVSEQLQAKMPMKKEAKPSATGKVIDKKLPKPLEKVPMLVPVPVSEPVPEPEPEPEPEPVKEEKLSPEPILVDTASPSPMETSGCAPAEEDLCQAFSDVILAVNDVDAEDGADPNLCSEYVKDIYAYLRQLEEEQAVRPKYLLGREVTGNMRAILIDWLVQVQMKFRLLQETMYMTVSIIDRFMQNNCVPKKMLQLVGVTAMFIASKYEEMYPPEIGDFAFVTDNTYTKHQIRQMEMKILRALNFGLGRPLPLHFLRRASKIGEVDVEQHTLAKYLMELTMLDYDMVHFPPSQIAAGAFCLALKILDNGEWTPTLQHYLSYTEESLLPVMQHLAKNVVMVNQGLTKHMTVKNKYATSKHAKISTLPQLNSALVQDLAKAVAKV

Row | SMILES | IC50 [1, 5] | IC50 [2, 6] | IC50 [3, 7] | IC50 [4, 8] | IC50 [3, 9] | IC50 [4, 10] | IC50 [1, 11] | IC50 [4, 12] | IC50 ([2]; x = IC50 25-250 nM, read-out: CDK6/CCND IC50 (25-250 nM))
1 | CNS(=O)(=O)c1ccc(Nc2cc3c(C#Cc4cccnc4N)nccc3cn2)c(F)c1 [Ex 467, 4-((5-((2-aminopyridin-3-yl)ethynyl)-2,6-naphthyridin-3-yl)amino)-3-fluoro-N-methylbenzenesulfonamide] | > 250 nM | > 250 nM |  | < 25 nM | 25 to 250 nM |  |  |  | 
2 | CNS(=O)(=O)c1ccc(Nc2cc3c(C#Cc4cccnc4N)nccc3cn2)cc1 [Ex 469, 4-((5-((2-aminopyridin-3-yl)ethynyl)-2,6-naphthyridin-3-yl)amino)-N-methylbenzenesulfonamide] |  | > 250 nM |  | < 25 nM | 25 to 250 nM |  | 25 to 250 nM |  | 
3 | CS(=O)(=O)c1ccc(Nc2cc3c(C#Cc4cncnc4N)nccc3cn2)cc1 [Ex 492, 5-((4-aminopyrimidin-5-yl)ethynyl)-N-(4-(methylsulfonyl)phenyl)-2,6-naphthyridin-3-amine] | > 250 nM | > 250 nM | > 250 nM |  |  | 25 to 250 nM |  |  | 
4 | COC(=O)c1ccc2c(C#Cc3nccc4cnc(Nc5ccc(S(C)(=O)=O)cc5)cc34)n[nH]c2c1 [Ex 498, methyl 3-((7-((4-(methylsulfonyl)phenyl)amino)-2,6-naphthyridin-1-yl)ethynyl)-1H-indazole-6-carboxylate] | > 250 nM | > 250 nM | > 250 nM |  |  |  |  | > 250 nM | 
5 | CS(=O)(=O)c1ccc(Nc2cc3c(C#Cc4cnc5[nH]c(=O)oc5c4)nccc3cn2)cc1 [Ex 501, 6-((7-((4-(methylsulfonyl)phenyl)amino)-2,6-naphthyridin-1-yl)ethynyl)oxazolo[4,5-b]pyridin-2(3H)-one] | > 250 nM | > 250 nM | > 250 nM |  |  | 25 to 250 nM |  |  | 
6 | CS(=O)(=O)c1ccc(Nc2cc3c(C#Cc4n[nH]c5c(F)cccc45)nccc3cn2)cc1 [Ex 503, 5-((7-fluoro-1H-indazol-3-yl)ethynyl)-N-(4-(methylsulfonyl)phenyl)-2,6-naphthyridin-3-amine] | > 250 nM | > 250 nM | > 250 nM |  |  | 25 to 250 nM |  |  | 
7 | CC(=O)Nc1ncc(C#Cc2nccc3cnc(Nc4ccc(S(C)(=O)=O)cc4)cc23)s1 [Ex 505, N-(5-((7-((4-(methylsulfonyl)phenyl)amino)-2,6-naphthyridin-1-yl)ethynyl)thiazol-2-yl)acetamide] | > 250 nM | > 250 nM | > 250 nM |  |  | 25 to 250 nM |  |  | 
8 | CS(=O)(=O)c1ccc(Nc2cc3c(C#Cc4ccc(N5CCCC(Cl)(Cl)C5=O)cc4)nccc3cn2)cc1 [Ex 506, 3,3-dichloro-1-(4-((7-((4-(methylsulfonyl)phenyl)amino)-2,6-naphthyridin-1-yl)ethynyl)phenyl)piperidin-2-one] | > 250 nM | > 250 nM | > 250 nM |  |  |  |  | > 250 nM | 
9 | Cc1cnc(C#Cc2nccc3cnc(Nc4ccc(S(C)(=O)=O)cc4)cc23)cn1 [Ex 507, 5-((5-methylpyrazin-2-yl)ethynyl)-N-(4-(methylsulfonyl)phenyl)-2,6-naphthyridin-3-amine] | > 250 nM | > 250 nM | > 250 nM |  |  |  |  | > 250 nM | 
10 | CS(=O)(=O)c1ccc(Nc2cc3c(C#Cc4ccnc(F)c4)nccc3cn2)cc1 [Ex 508, 5-((2-fluoropyridin-4-yl)ethynyl)-N-(4-(methylsulfonyl)phenyl)-2,6-naphthyridin-3-amine] | > 250 nM | > 250 nM | > 250 nM |  |  | 25 to 250 nM |  |  | 
11 | COc1ccc(C#Cc2nccc3cnc(Nc4ccc(S(C)(=O)=O)cc4)cc23)nn1 [Ex 514, 5-((6-methoxypyridazin-3-yl)ethynyl)-N-(4-(methylsulfonyl)phenyl)-2,6-naphthyridin-3-amine] | > 250 nM | > 250 nM | > 250 nM |  |  |  |  | > 250 nM | 
12 | Cn1cc(C#Cc2nccc3cnc(Nc4ccc(S(C)(=O)=O)cc4)cc23)ncc1=O [Ex 515, 1-methyl-5-((7-((4-(methylsulfonyl)phenyl)amino)-2,6-naphthyridin-1-yl)ethynyl)pyrazin-2(1H)-one] | > 250 nM | > 250 nM | > 250 nM |  |  | 25 to 250 nM |  |  | 

The next lines start with the values.

Row | IC50 [1, 5] | IC50 [2, 6] | IC50 [3, 7] | IC50 [4, 8] | IC50 [3, 9] | IC50 [4, 10] | IC50 [1, 11] | IC50 [4, 12] | IC50 ([2]; x = IC50 25-250 nM, read-out: CDK6/CCND IC50 (25-250 nM)) | SMILES
13 | > 250 nM | > 250 nM | > 250 nM | < 25 nM |  |  |  |  |  | Nc1ncccc1C#Cc1nccc2cnc(Nc3ccc(S(N)(=O)=O)cc3F)cc12 [Ex 466, 4-((5-((2-aminopyridin-3-yl)ethynyl)-2,6-naphthyridin-3-yl)amino)-3-fluorobenzenesulfonamide]
14 | > 250 nM | > 250 nM | > 250 nM |  |  | 25 to 250 nM |  |  |  | Nc1ncccc1C#Cc1nccc2cnc(Nc3ccc(S(=O)(=O)Nc4nccc(N5CCNCC5)n4)cc3)cc12 [Ex 468, 4-((5-((2-aminopyridin-3-yl)ethynyl)-2,6-naphthyridin-3-yl)amino)-N-(4-(piperazin-1-yl)pyrimidin-2-yl)benzenesulfonamide]
15 | > 250 nM | > 250 nM | > 250 nM |  |  | 25 to 250 nM |  |  |  | CS(=O)(=O)c1ccc(Nc2cc3c(C#Cc4cnn5ccccc45)nccc3cn2)cc1 [Ex 478, N-(4-(methylsulfonyl)phenyl)-5-(pyrazolo[1,5-a]pyridin-3-ylethynyl)-2,6-naphthyridin-3-amine]
16 |  | > 250 nM |  | < 25 nM | 25 to 250 nM |  | 25 to 250 nM |  |  | CC1(C)C(=O)Nc2cc(C#Cc3nccc4cnc(Nc5ccc(S(C)(=O)=O)cc5)cc34)ccc21 [Ex 486, 3,3-dimethyl-6-((7-((4-(methylsulfonyl)phenyl)amino)-2,6-naphthyridin-1-yl)ethynyl)indolin-2-one]
17 | > 250 nM | > 250 nM | > 250 nM |  |  | 25 to 250 nM |  |  |  | COc1ccc(C#Cc2nccc3cnc(Nc4ccc(S(C)(=O)=O)cc4)cc23)cc1F [Ex 499, 5-((3-fluoro-4-methoxyphenyl)ethynyl)-N-(4-(methylsulfonyl)phenyl)-2,6-naphthyridin-3-amine]
18 | > 250 nM | > 250 nM | > 250 nM |  |  | 25 to 250 nM |  |  |  | Cc1c(C#Cc2nccc3cnc(Nc4ccc(S(C)(=O)=O)cc4)cc23)ccnc1Cl [Ex 500, 5-((2-chloro-3-methylpyridin-4-yl)ethynyl)-N-(4-(methylsulfonyl)phenyl)-2,6-naphthyridin-3-amine]
19 | > 250 nM | > 250 nM | > 250 nM |  |  | 25 to 250 nM |  |  |  | CS(=O)(=O)c1ccc(Nc2cc3c(C#Cc4cccn5ncnc45)nccc3cn2)cc1 [Ex 502, 5-([1,2,4]triazolo[1,5-a]pyridin-8-ylethynyl)-N-(4-(methylsulfonyl)phenyl)-2,6-naphthyridin-3-amine]
20 |  |  |  | < 25 nM | 25 to 250 nM |  | 25 to 250 nM |  | 25 to 250 nM | CC(C)(C#Cc1nccc2cnc(Nc3ccc(S(C)(=O)=O)cc3)cc12)CO [Ex 504, 2,2-dimethyl-4-(7-((4-(methylsulfonyl)phenyl)amino)-2,6-naphthyridin-1-yl)but-3-yn-1-ol]
21 | > 250 nM | > 250 nM | > 250 nM |  |  | 25 to 250 nM |  |  |  | Cc1cnc(F)cc1C#Cc1nccc2cnc(Nc3ccc(S(C)(=O)=O)cc3)cc12 [Ex 509, 5-((2-fluoro-5-methylpyridin-4-yl)ethynyl)-N-(4-(methylsulfonyl)phenyl)-2,6-naphthyridin-3-amine]
